Converted amounts (≈) assume the structure as drawn. Like-named read-outs stand apart in the source and are kept apart here.
Legend:
diastolic blood pressure = assay: Prostaglandin-like hypotensive activity in anesthetized rats (minimal dose for about 10 mm. decrease in diastolic blood pressure); format: in vivo, Male Wistar strain rats; conditions: Rattus norvegicus; intravenous; decrease of about 10 mm. in diastolic blood pressure
How it was run: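 Male Wistar rats (~250 g), pentobarbital 30 mg./kg. i.v. and hexamethonium 2 mg./kg. i.v., iliac artery cannulated for blood pressure. Compounds in saline-Tween 80 given i.v. at 0.1–10.0 mg./kg.; value is the minimal dose giving ~10 mm. drop in diastolic pressure.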

[1] = tested on: Mycobacterium smegmatis ATCC 606; assay: agar-dilution streak-plate antimicrobial assay; format: cell-based; conditions: Mycolicibacterium smegmatis, ATCC606, read-out: Minimal inhibitory conc. (6)
How it was run: (§1)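 Agar plates containing two-fold dilutions of a 2.5 mg/ml compound solution (1 ml per 9 ml agar) were streak-inoculated with a loopful of live culture. Plates were incubated and streaks inspected by eye. The MIC is the concentration completely inhibiting growth.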

[2] = tested on: Staphylococcus aureus Rose ATCC 14154; assay: agar-dilution streak-plate antimicrobial assay; format: cell-based; conditions: ATCC14154, read-out: Minimal inhibitory conc. (7)
How it was run: as §1

[3] = tested on: Streptococcus pyogenes C 203; assay: agar-dilution streak-plate antimicrobial assay; format: cell-based; conditions: C203, read-out: Minimal inhibitory conc. (8)
How it was run: as §1

[4] = tested on: Trichophyton mentagrophytes E 11; assay: agar-dilution streak-plate antimicrobial assay; format: cell-based; conditions: E11, read-out: Minimal inhibitory conc. (4)
How it was run: as §1

[5] = tested on: Trichophyton tonsurans NIH 662; assay: agar-dilution streak-plate antimicrobial assay; format: cell-based; conditions: NIH662, read-out: Minimal inhibitory conc. (3)
How it was run: as §1

[6] = tested on: bronchospasms elicited by acetylcholine; assay: Bronchodilator Activity (Konzett Assay) against acetylcholine; format: in vivo, guinea pigs; conditions: Cavia porcellus; three logarithmic cumulative intravenous doses
How it was run: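 Guinea pigs given intravenous spasmogen (5-hydroxytryptamine, histamine or acetylcholine) per Konzett procedure. ED50 derived from three logarithmic cumulative intravenous doses of test compound.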

[7] = tested on: Microsporum canis ATCC 10214; assay: agar-dilution streak-plate antimicrobial assay; format: cell-based; conditions: ATCC10214, read-out: Minimal inhibitory conc. (1)
How it was run: as §1

[8] = tested on: Microsporum gypseum ATCC 14683; assay: agar-dilution streak-plate antimicrobial assay; format: cell-based; conditions: Nannizzia gypsea, ATCC14683, read-out: Minimal inhibitory conc. (2)
How it was run: as §1

Trichophyton rubrum E 97 = assay: agar-dilution streak-plate antimicrobial assay; format: cell-based; conditions: E97, read-out: Minimal inhibitory conc. (5)
How it was run: as §1

gastric acid secretion = assay: Inhibition of basal Gastric Acid Secretion (Acute Gastric Fistula Rat); format: in vivo, Female Sprague-Dawley rats; conditions: 10 mg./kg. intraduodenal
How it was run: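 Fasted (18-24 h) female Sprague-Dawley rats (140-160 g) with acute gastric fistula; compound given intraduodenally in 0.5% methocel/0.4% Tween 80/saline. Gastric juice collected at 60 and 120 min after a discarded 30-min sample, titrated with 0.01N NaOH to pH 7.0; percent inhibition of acid output versus controls, three rats per group.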

[9] = 2 h, B: 120 minute collection, read-out: % Inhibition Total Acid Output
[10] = 2 h, B: 120 minute collection, read-out: % Inhibition Total Acidity

CCCCCC/C=C/[C@@H]1CCCC(=O)[C@H]1CCCCCCC(=O)O (relative stereo) [9-oxo-10a-homo-13-trans-prostenoic acid]
minimal effective dose (diastolic blood pressure): 0.2 mg/kg | MIC [1]: 25 µg/mL (≈ 74.3 µM) | MIC [2]: 100 µg/mL (≈ 297 µM) | MIC [3]: 10 µg/mL (≈ 29.7 µM) | MIC [4]: 100 µg/mL (≈ 297 µM) | MIC [5]: 100 µg/mL (≈ 297 µM) | ED50 [6]: > 10.1 mg/kg

CCCCCCC/C=C/[C@@H]1CCC(=O)[C@H]1CCCCCCC(=O)O (relative stereo) [20-methyl-9-oxo-13-trans-prostenoic acid]
minimal effective dose (diastolic blood pressure): 0.5 to 2 mg/kg | MIC [7]: 100 µg/mL (≈ 297 µM) | MIC [8]: 50 µg/mL (≈ 149 µM) | MIC [1]: 25 µg/mL (≈ 74.3 µM) | MIC [2]: 50 µg/mL (≈ 149 µM) | MIC [3]: 10 µg/mL (≈ 29.7 µM) | MIC [4]: 25 µg/mL (≈ 74.3 µM) | MIC (Trichophyton rubrum E 97): 100 µg/mL (≈ 297 µM) | MIC [5]: 25 µg/mL (≈ 74.3 µM) | ED50 [6]: 2.44 mg/kg

CCC/C=C/[C@H]1CCC(=O)[C@@H]1CCCCCCC(=O)O (relative stereo) [9-oxo-18,19,20-trinor-13-trans-prostenoic acid]
MIC [8]: 250 µg/mL (≈ 892 µM) | MIC [3]: 250 µg/mL (≈ 892 µM) | MIC [4]: 250 µg/mL (≈ 892 µM) | MIC [5]: 250 µg/mL (≈ 892 µM) | inhibition in vivo at 10 mg/kg (gastric acid secretion; 1 h, A: 60 minute collection, read-out: % Inhibition Total Acid Output): 55% | inhibition in vivo at 10 mg/kg (gastric acid secretion; 1 h, A: 60 minute collection, read-out: % Inhibition Total Acidity): 20% | inhibition in vivo at 10 mg/kg (gastric acid secretion; [9]): 55% | inhibition in vivo at 10 mg/kg (gastric acid secretion; [10]): 52% | ED50 [6]: 6.42 mg/kg

CC(C)CC/C=C/[C@@H]1CCC(=O)[C@H]1CCCCCCC(=O)O (relative stereo) [17-methyl-9-oxo-19,20-dinor-13-trans-prostenoic acid]
minimal effective dose (diastolic blood pressure): 0.5 mg/kg | MIC [7]: 50 µg/mL (≈ 162 µM) | MIC [8]: 50 µg/mL (≈ 162 µM) | MIC [1]: 62 µg/mL (≈ 201 µM) | MIC [2]: 250 µg/mL (≈ 810 µM) | MIC [3]: 62 µg/mL (≈ 201 µM) | MIC [4]: 25 µg/mL (≈ 81 µM) | MIC (Trichophyton rubrum E 97): 50 µg/mL (≈ 162 µM) | MIC [5]: 25 µg/mL (≈ 81 µM) | inhibition in vivo at 10 mg/kg (gastric acid secretion; [9]): 53% | inhibition in vivo at 10 mg/kg (gastric acid secretion; [10]): 51% | ED50 [6]: 4.3 mg/kg

CCCCCC/C=C/[C@H]1CCC(=O)[C@@H]1CCCCCCC(=O)O (relative stereo) [9-oxo-13-trans-prostenoic acid]
minimal effective dose (diastolic blood pressure): 0.4 mg/kg | MIC [7]: 50 µg/mL (≈ 155 µM) | MIC [8]: 50 µg/mL (≈ 155 µM) | MIC [1]: 62 µg/mL (≈ 192 µM) | MIC [2]: 250 µg/mL (≈ 775 µM) | MIC [3]: 62 µg/mL (≈ 192 µM) | MIC [4]: 50 µg/mL (≈ 155 µM) | MIC (Trichophyton rubrum E 97): 250 µg/mL (≈ 775 µM) | MIC [5]: 50 µg/mL (≈ 155 µM) | ED50 [6]: 1.02 mg/kg

O=C(O)CCCCCC[C@@H]1C(=O)CC[C@H]1/C=C/CCCCl (relative stereo) [20-chloro-9-oxo-17,18,19-trinor-13-trans-prostenoic acid]
minimal effective dose (diastolic blood pressure): 2 to 8 mg/kg | MIC [7]: 250 µg/mL (≈ 794 µM) | MIC [8]: 250 µg/mL (≈ 794 µM) | MIC [4]: 250 µg/mL (≈ 794 µM) | MIC (Trichophyton rubrum E 97): 250 µg/mL (≈ 794 µM) | MIC [5]: 250 µg/mL (≈ 794 µM) | ED50 [6]: 3.87 mg/kg

O=C(O)CCCCCC[C@H]1C(=O)CC[C@@H]1/C=C/CCCCCCCl (relative stereo) [20-chloro-9-oxo-13-trans-prostenoic acid]
minimal effective dose (diastolic blood pressure): 0.5 mg/kg | MIC [7]: 250 µg/mL (≈ 700 µM) | MIC [8]: 62 µg/mL (≈ 174 µM) | MIC [1]: 250 µg/mL (≈ 700 µM) | MIC [2]: 250 µg/mL (≈ 700 µM) | MIC [3]: 62 µg/mL (≈ 174 µM) | MIC [4]: 62 µg/mL (≈ 174 µM) | MIC (Trichophyton rubrum E 97): 62 µg/mL (≈ 174 µM) | MIC [5]: 16 µg/mL (≈ 44.8 µM) | ED50 [6]: 4.82 mg/kg

CCCCC/C=C/[C@H]1CCC(=O)[C@@H]1CCCCCCC(=O)O (relative stereo) [9-oxo-20-nor-13-trans-prostenoic acid]
minimal effective dose (diastolic blood pressure): 0.5 to 1 mg/kg | MIC [7]: 50 µg/mL (≈ 162 µM) | MIC [8]: 50 µg/mL (≈ 162 µM) | MIC [1]: 62 µg/mL (≈ 201 µM) | MIC [2]: 250 µg/mL (≈ 810 µM) | MIC [3]: 62 µg/mL (≈ 201 µM) | MIC [4]: 25 µg/mL (≈ 81 µM) | MIC (Trichophyton rubrum E 97): 50 µg/mL (≈ 162 µM) | MIC [5]: 25 µg/mL (≈ 81 µM) | ED50 [6]: 1.17 mg/kg

CC/C=C\CC/C=C/[C@@H]1CCC(=O)[C@H]1CCCCCCC(=O)O (relative stereo) [9-oxo-13-trans-17-cis-prostadienoic acid]
minimal effective dose (diastolic blood pressure): 0.2 mg/kg | MIC [7]: 125 µg/mL (≈ 390 µM) | MIC [8]: 62 µg/mL (≈ 193 µM) | MIC [1]: 62 µg/mL (≈ 193 µM) | MIC [2]: 250 µg/mL (≈ 780 µM) | MIC [3]: 62 µg/mL (≈ 193 µM) | MIC [4]: 62 µg/mL (≈ 193 µM) | MIC (Trichophyton rubrum E 97): 125 µg/mL (≈ 390 µM) | MIC [5]: 62 µg/mL (≈ 193 µM) | ED50 [6]: 6 mg/kg
